Data taken from patent US5672715A, “Herbicidal substituted 3-aryl-pyrazoles” (Monsanto Company, priority 1995, dated 1997).

How the values were obtained:
Type in all cases: in vivo
[1] = tested on: Barnyardgrass; assay: pre-emergence herbicide test; conditions: Echinochloa crus-galli, pre-emergence, 0.25 lb/A; read-out: % plant inhibition
In short: (§1)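 Seeds were sown on compacted topsoil in pans and covered with a topsoil layer carrying a known amount of active ingredient in acetone or water, applied before or after covering. Pans were bottom-watered on a greenhouse bench, and % inhibition was scored about 14 days after seeding and treatment.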

[2] = tested on: Bedstraw Catchweed; assay: pre-emergence herbicide test; conditions: Galium aparine, pre-emergence, 0.25 lb/A; read-out: % plant inhibition
In short: as §1

[3] = tested on: Birdseye Speedwell; assay: pre-emergence herbicide test; conditions: pre-emergence, 0.25 lb/A; read-out: % plant inhibition
In short: as §1

[4] = tested on: Blackgrass; assay: pre-emergence herbicide test; conditions: Alopecurus myosuroides, pre-emergence, 0.25 lb/A; read-out: % plant inhibition
In short: as §1

[5] = tested on: Cocklebur; assay: pre-emergence herbicide test; conditions: Xanthium strumarium, pre-emergence, 0.25 lb/A; read-out: % plant inhibition
In short: as §1

[6] = tested on: Common Chickweed; assay: pre-emergence herbicide test; conditions: pre-emergence, 0.25 lb/A; read-out: % plant inhibition
In short: as §1

[7] = tested on: Corn; assay: pre-emergence herbicide test; conditions: Zea mays, pre-emergence, 0.25 lb/A; read-out: % plant inhibition
In short: as §1

[8] = tested on: Downy Brome; assay: pre-emergence herbicide test; conditions: Bromus tectorum, pre-emergence, 0.25 lb/A; read-out: % plant inhibition
In short: as §1

[9] = tested on: Giant Foxtail; assay: pre-emergence herbicide test; conditions: Setaria faberi, pre-emergence, 0.25 lb/A; read-out: % plant inhibition
In short: as §1

[10] = tested on: Green Foxtail; assay: pre-emergence herbicide test; conditions: Setaria viridis, pre-emergence; 0.25 lb/A; read-out: % plant inhibition
In short: as §1

[11] = tested on: Morning Glory; assay: pre-emergence herbicide test; conditions: Ipomoea, pre-emergence, 0.25 lb/A; read-out: % plant inhibition
In short: as §1

[12] = tested on: Rape; assay: pre-emergence herbicide test; conditions: pre-emergence, 0.25 lb/A; read-out: % plant inhibition
In short: as §1

[13] = tested on: Seedling Johnsongrass; assay: pre-emergence herbicide test; conditions: Sorghum halepense, pre-emergence, 0.25 lb/A; read-out: % plant inhibition
In short: as §1

[14] = tested on: Soybean; assay: pre-emergence herbicide test; conditions: Glycine max, pre-emergence, 0.25 lb/A; read-out: % plant inhibition
In short: as §1

[15] = tested on: Velvetleaf; assay: pre-emergence herbicide test; conditions: Abutilon theophrasti, pre-emergence, 0.25 lb/A; read-out: % plant inhibition
In short: as §1

[16] = tested on: Wheat; assay: pre-emergence herbicide test; conditions: Triticum aestivum, pre-emergence, 0.25 lb/A; read-out: % plant inhibition
In short: as §1

[17] = tested on: Wild Oats; assay: pre-emergence herbicide test; conditions: Avena fatua, pre-emergence, 0.25 lb/A; read-out: % plant inhibition
In short: as §1

[18] = tested on: Barnyardgrass; assay: post-emergence herbicide test; conditions: Echinochloa crus-galli, post-emergence, 0.25 lb/A; read-out: % plant inhibition
In short: (§2)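 Herbicidal effect measured as percent inhibition of each plant species after spraying. Application: atomizer, 170.3 kPa, 1870 L/Ha, about 0.4% emulsifier, to plants aged two to three weeks in greenhouse soil pans.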

[19] = tested on: Bedstraw Catchweed; assay: post-emergence herbicide test; conditions: Galium aparine, post-emergence, 0.25 lb/A; read-out: % plant inhibition
In short: as §2

[20] = tested on: Birdseye Speedwell; assay: post-emergence herbicide test; conditions: post-emergence, 0.25 lb/A; read-out: % plant inhibition
In short: as §2

[21] = tested on: Blackgrass; assay: post-emergence herbicide test; conditions: Alopecurus myosuroides, post-emergence, 0.25 lb/A; read-out: % plant inhibition
In short: as §2

[22] = tested on: Cocklebur; assay: post-emergence herbicide test; conditions: Xanthium strumarium, post-emergence, 0.25 lb/A; read-out: % plant inhibition
In short: as §2

[23] = tested on: Common Chickweed; assay: post-emergence herbicide test; conditions: post-emergence, 0.25 lb/A; read-out: % plant inhibition
In short: as §2

[24] = tested on: Corn; assay: post-emergence herbicide test; conditions: Zea mays, post-emergence, 0.25 lb/A; read-out: % plant inhibition
In short: as §2

[25] = tested on: Downy Brome; assay: post-emergence herbicide test; conditions: Bromus tectorum, post-emergence, 0.25 lb/A; read-out: % plant inhibition
In short: as §2

[26] = tested on: Giant Foxtail; assay: post-emergence herbicide test; conditions: Setaria faberi, post-emergence, 0.25 lb/A; read-out: % plant inhibition
In short: as §2

[27] = tested on: Green Foxtail; assay: post-emergence herbicide test; conditions: Setaria viridis, post-emergence, 0.25 lb/A; read-out: % plant inhibition
In short: as §2

[28] = tested on: Morning Glory; assay: post-emergence herbicide test; conditions: Ipomoea, post-emergence, 0.25 lb/A; read-out: % plant inhibition
In short: as §2

[29] = tested on: Rape; assay: post-emergence herbicide test; conditions: post-emergence, 0.25 lb/A; read-out: % plant inhibition
In short: as §2

[30] = tested on: Seedling Johnsongrass; assay: post-emergence herbicide test; conditions: Sorghum halepense, post-emergence, 0.25 lb/A; read-out: % plant inhibition
In short: as §2

[31] = tested on: Soybean; assay: post-emergence herbicide test; conditions: Glycine max, post-emergence, 0.25 lb/A; read-out: % plant inhibition
In short: as §2

[32] = tested on: Velvetleaf; assay: post-emergence herbicide test; conditions: Abutilon theophrasti, post-emergence, 0.25 lb/A; read-out: % plant inhibition
In short: as §2

[33] = tested on: Wheat; assay: post-emergence herbicide test; conditions: Triticum aestivum, post-emergence, 0.25 lb/A; read-out: % plant inhibition
In short: as §2

[34] = tested on: Wild Oats; assay: post-emergence herbicide test; conditions: Avena fatua, post-emergence, 0.25 lb/A; read-out: % plant inhibition
In short: as §2

Row | SMILES | inhibition at 280.212 g/ha [1] [%] | inhibition at 280.212 g/ha [2] [%] | inhibition at 280.212 g/ha [3] [%] | inhibition at 280.212 g/ha [4] [%] | inhibition at 280.212 g/ha [5] [%] | inhibition at 280.212 g/ha [6] [%] | inhibition at 280.212 g/ha [7] [%] | inhibition at 280.212 g/ha [8] [%] | inhibition at 280.212 g/ha [9] [%] | inhibition at 280.212 g/ha [10] [%] | inhibition at 280.212 g/ha [11] [%] | inhibition at 280.212 g/ha [12] [%] | inhibition at 280.212 g/ha [13] [%] | inhibition at 280.212 g/ha [14] [%] | inhibition at 280.212 g/ha [15] [%] | inhibition at 280.212 g/ha [16] [%] | inhibition at 280.212 g/ha [17] [%] | inhibition at 280.212 g/ha [18] [%] | inhibition at 280.212 g/ha [19] [%] | inhibition at 280.212 g/ha [20] [%] | other results
1 | C#CCOC(=O)c1cc(-c2nn(C)c(C(F)(F)F)c2C)c(F)cc1Cl [Compound 42] | 35 | 80 | 30 | 15 | 65 | 40 | 5 | 10 | 0 | 95 | 60 | 5 | 0 | 0 | 65 | 0 | 5 | 65 | 100 | 95 | inhibition at 280.212 g/ha [21]: 20%; inhibition at 280.212 g/ha [22]: 85%; inhibition at 280.212 g/ha [23]: 95%; inhibition at 280.212 g/ha [24]: 25%; inhibition at 280.212 g/ha [25]: 30%; inhibition at 280.212 g/ha [26]: 0%; inhibition at 280.212 g/ha [27]: 40%; inhibition at 280.212 g/ha [28]: 70%; inhibition at 280.212 g/ha [29]: 40%; inhibition at 280.212 g/ha [30]: 45%; inhibition at 280.212 g/ha [31]: 10%; inhibition at 280.212 g/ha [32]: 98%; inhibition at 280.212 g/ha [33]: 15%; inhibition at 280.212 g/ha [34]: 20%
2 | Cc1c(-c2cc(C(=O)NC(C)C)c(Cl)cc2F)nn(C)c1C(F)(F)F [Compound 22] | 95 | 100 | 100 | 85 | 25 | 100 | 5 | 40 | 98 | 100 | 5 | 90 | 97 | 25 | 40 | 6 | 85 | 30 | 45 | 40 | inhibition at 280.212 g/ha [21]: 5%; inhibition at 280.212 g/ha [22]: 65%; inhibition at 280.212 g/ha [23]: 40%; inhibition at 280.212 g/ha [24]: 5%; inhibition at 280.212 g/ha [25]: 15%; inhibition at 280.212 g/ha [26]: 75%; inhibition at 280.212 g/ha [27]: 20%; inhibition at 280.212 g/ha [28]: 40%; inhibition at 280.212 g/ha [29]: 10%; inhibition at 280.212 g/ha [30]: 60%; inhibition at 280.212 g/ha [31]: 50%; inhibition at 280.212 g/ha [32]: 90%; inhibition at 280.212 g/ha [33]: 0%; inhibition at 280.212 g/ha [34]: 10%
3 | CCOC(=O)CCCOC(=O)c1cc(-c2nn(C)c(C(F)(F)F)c2C)c(F)cc1Cl [Compound 24] | 20 | 95 | 100 | 50 | 40 | 100 | 0 | 30 | 35 | 100 | 0 | 95 | 10 | 0 | 60 | 7 | 15 | 15 | 65 | 95 | inhibition at 280.212 g/ha [21]: 25%; inhibition at 280.212 g/ha [22]: 85%; inhibition at 280.212 g/ha [23]: 90%; inhibition at 280.212 g/ha [24]: 10%; inhibition at 280.212 g/ha [25]: 25%; inhibition at 280.212 g/ha [26]: 15%; inhibition at 280.212 g/ha [27]: 20%; inhibition at 280.212 g/ha [28]: 75%; inhibition at 280.212 g/ha [29]: 25%; inhibition at 280.212 g/ha [30]: 20%; inhibition at 280.212 g/ha [31]: 45%; inhibition at 280.212 g/ha [32]: 99%; inhibition at 280.212 g/ha [33]: 20%; inhibition at 280.212 g/ha [34]: 25%
